From patent EP4786484A1, “CYCLIC PEPTIDE COMPOUND AND USE THEREOF” (Shenzhen Zhongge Biological Technology Co., Ltd., priority 2023, dated 2026)
Several values for one entry are separate records, joined by “and”; a condition that tells them apart may be missing. Identical values can stand only once. Residues, ends and D or L forms follow the SMILES beside them.

Legend:
hyaluronic acid (HA) = assay: Hyaluronic acid (HA) elevation effect in fibroblasts (ELISA); format: cell-based, human; parameters: HA elevation effect in the fibroblasts: unit not given here; details: 1 µM, 24 h; for HA elevation effect in the fibroblasts: ELISA, Blank control (BC) 1402.44; for hyaluronic acid (HA) content compared to the BC: result in words
From the text: (§1) B. Collagen I (type I collagen) elevation effect in fibroblasts, hyaluronic acid (HA) elevation effect in fibroblasts, and elastin (ELN) elevation effect in fibroblasts
(§2) Test materials: Fibroblasts of human origin (Guangdong Boxi Biotechnology Co., Ltd., Lot No. Fb20081902), DMEM culture medium (Gibco, 23042301, expiration date 230522), PBS (Solarbio, P1010), TGF-β1 (Peprotech, 230504), Collagen I ELISA Kit (Cusabio, B21025824), Elastin ELISA kit (Abcam, GR3446070-2), HA ELISA kit (RD, P325066). CO2 incubator (Thermo, 1501), super-clean bench (AIRTECH, SW-CJ-1F), microplate reader (BioTek, Epoch).
(§3) Test methods: • 1) Inoculation: After cell resuscitation, the cells were inoculated into 6-well plates when the plating rate reached around 60%, and were incubated overnight in an incubator (37°C, 5% CO2). • 2) Formulation of solutions: The cyclic peptide compounds in the sample group, PC2 (Biotinoyl-GHK, [drawing 2] ) and PC3 [drawing 3] in the positive reference group were all at the concentration of 1 µM, and the test substance working solutions were formulated. Only the cell culture medium was added for the blank control group (BC). • 3) Administration: When the cell plating rate in the 6-well plates reached 40% to 60%, administration was performed at 2 mL per well. 3 duplicate wells were set for each group. Incubation was performed in an incubator (37°C, 5% CO2) for 24 h. • 4) ELISA assay: The ELISA assay was performed according to the instructions of the ELISA kit, with the detection indicators being Collagen I elevation effect in the fibroblasts, HA elevation effect in the fibroblasts, and elastin elevation effect in the fibroblasts.

[1] = tested on: Collagen I (type I collagen); assay: Collagen I elevation effect in fibroblasts (ELISA); format: cell-based, human; parameters: Collagen I elevation effect in the fibroblasts: unit not given here; details: 1 µM, 24 h; for Collagen I elevation effect in the fibroblasts: ELISA, Blank control (BC) 35.6; for type I collagen (Collagen I) content compared to the BC: result in words
From the text: as §1, §2, §3

elastin (ELN) = assay: Elastin (ELN) elevation effect in fibroblasts (ELISA); format: cell-based, human; parameters: Elastin elevation effect in the fibroblasts: unit not given here; details: 1 µM, 24 h; for Elastin elevation effect in the fibroblasts: ELISA, Blank control (BC) 756.52; for elastin content compared to the BC: result in words
From the text: as §1, §2, §3

[2] = tested on: Fibroblasts of human origin; assay: Fibroblast cytotoxicity test (MTT); format: cell-based; details: Positive control 10% DMSO, 24 h, 1440 min
Method: A. Fibroblast cytotoxicity test
Test materials: Fibroblasts of human origin (Guangdong Boxi Biotechnology Co., Ltd., Lot No. Fb20081902), DMEM culture medium (Gibco, 23042301, expiration date on 230522), PBS (Solarbio, P1010), MTT (Sigma, M5655), DMSO (Sigma, D4540-1L), CO2 incubator (Thermo, 150I), super-clean bench (AIRTECH, SW-CJ-1F), inverted microscope (Olympus, CKX53).
Test methods: • 1) Cell inoculation: After cell resuscitation, the cells were inoculated into 96-well plates when the plating rate reached around 60%, and were incubated overnight in an incubator (37°C, 5% CO2). • 2) Test grouping: The blank group, solvent control group, positive control group, and sample group were set for the test. In the sample group, 7 concentration gradients were set for each sample and 3 duplicate wells were set for each concentration gradient. • 3) Formulation of solutions: Sample working solutions at different concentrations were formulated based on the test concentrations of 0.0781 µM, 0.1563 µM, 0.3125 µM, 0.625 µM, 1.25 µM, 2.5 µM, and 5 µM. • 4) Administration: Administration was performed when the cell plating rate in the 96-well plates reached 50% to 60%. 200 µL of culture medium per well was added for the solvent control group; 200 µL of culture medium containing 10% DMSO per well was added for the positive control group; 200 µL of culture medium containing the sample at a corresponding concentration per well was added for the sample group; The blank group had no cell inoculation, for which only 200 µL of cell culture medium was added. After the administration was complete, the 96-well plates were incubated in an incubator (37°C, 5% CO2) for 24 h. • 5) Detection: After 24 h of cell incubation and culture, the supernatant was discarded, and MTT working solution (0.5 mg/mL) was added. Incubation was performed at 37°C for 4 h in the dark. After the incubation was completed, the supernatant was discarded and 150 µL DMSO was added to each well. The OD value was read at 490 nm. • 6) Calculation of relative viability of cells: Calculation was performed according to the formula below: Relative viability of cells = (Sample well OD−Blank well OD)/(Solvent control well OD−Blank well OD) × 100%. [formula]

Row | Structure (SMILES) | HA elevation effect in the fibroblasts (hyaluronic acid (HA)) | hyaluronic acid (HA) content compared to the BC (hyaluronic acid (HA)) | Collagen I elevation effect in the fibroblasts [1] | type I collagen (Collagen I) content compared to the BC [1] | Elastin elevation effect in the fibroblasts (elastin (ELN)) | elastin content compared to the BC (elastin (ELN)) | Relative viability of cells [2]
1 | CC(C)C[C@@H]1NC(=O)[C@H](CCCCN)NC(=O)[C@H](Cc2c[nH]cn2)NC(=O)CNC(=O)[C@H](C(C)C)NC(=O)[C@H](Cc2ccccc2)NC1=O [compound 297] (cyclo(FVGHKL)) | 2212.6 | significant increase | 52.28 | significant increase | 923.52 | significant increase | 
2 | CC[C@H](C)[C@@H]1NC(=O)[C@H](CCCCN)NC(=O)[C@H](Cc2c[nH]cn2)NC(=O)CNC(=O)[C@@H]2CCCN2C(=O)[C@H](CCSC)NC1=O [compound 205] (cyclo(GHKIMP)) | 2641.21 | significant increase | 49.25 | significant increase | 1074.17 | significant increase | 
3 | CC(C)C[C@@H]1NC(=O)[C@H](CCCCN)NC(=O)[C@H](Cc2c[nH]cn2)NC(=O)CNC(=O)[C@H](C)NC(=O)[C@H](Cc2ccccc2)NC1=O [compound 289] (cyclo(AGHKLF)) | 1978.48 | significant increase | 41 | significant increase | 1034.59 | significant increase | 
4 | CSCC[C@@H]1NC(=O)[C@H](CCCCN)NC(=O)[C@H](Cc2c[nH]cn2)NC(=O)CNC(=O)[C@@H]2CCCN2C(=O)CNC1=O [compound 340] (cyclo(GHKMGP)) |  |  | 90.07 | significant increase | 1304.87 | significant increase | 
5 | CC[C@H](C)[C@@H]1NC(=O)[C@H](CCCCN)NC(=O)[C@H](Cc2c[nH]cn2)NC(=O)CNC(=O)[C@@H]2CCCN2C(=O)[C@H](CC(C)C)NC1=O [compound 196] (cyclo(GHKILP)) | 2305.13 | significant increase |  |  | 1175.6 | significant increase | 
6 | C[C@@H]1NC(=O)[C@H](CCCCN)NC(=O)[C@H](Cc2c[nH]cn2)NC(=O)CNC(=O)[C@@H]2CCCN2C(=O)[C@H](Cc2ccccc2)NC1=O [compound 52] (cyclo(AFPGHK)) | 2900.83 | significant increase |  |  | 1043.27 | significant increase | 
7 | CC(C)[C@@H]1NC(=O)[C@H](C)NC(=O)[C@H](Cc2ccccc2)NC(=O)[C@H](CCCCN)NC(=O)[C@H](Cc2c[nH]cn2)NC(=O)CNC1=O [compound 414] (cyclo(AVGHKF)) | 1926.61 | significant increase | 40.54 | significant increase | 1124.58 | significant increase | 
8 | C[S+](C)[O-] [10% DMSO, DMSO] |  |  |  |  |  |  | 0.30% and 1.87% and 1.62% and 1.17% and 0.61% and 2.07% and 0.54% and 0.43%
9 | CC[C@H](C)[C@@H]1NC(=O)[C@H](Cc2ccccc2)NC(=O)[C@H](CC(C)C)NC(=O)[C@H](CCCCN)NC(=O)[C@H](Cc2c[nH]cn2)NC(=O)CNC1=O [compound 291] (cyclo(FIGHKL)) | 2477.91 | significant increase |  |  | 1177.19 | significant increase | 
10 | CC[C@H](C)[C@@H]1NC(=O)[C@H](CCCCN)NC(=O)[C@H](Cc2c[nH]cn2)NC(=O)CNC(=O)[C@@H]2CCCN2C(=O)[C@H](Cc2ccccc2)NC1=O [compound 214] (cyclo(FPGHKI)) | 1965.3 | significant increase | 42.51 | significant increase | 1050.82 | significant increase | 
11 | CC[C@H](C)[C@@H]1NC(=O)[C@H](CC(C)C)NC(=O)[C@H](CCCCN)NC(=O)[C@H](Cc2c[nH]cn2)NC(=O)CNC(=O)[C@@H]2CCCN2C1=O [compound 268] (cyclo(GHKLIP)) |  |  | 61.46 | significant increase |  |  | 
12 | CC(C)C[C@@H]1NC(=O)[C@H](CCCCN)NC(=O)[C@H](Cc2c[nH]cn2)NC(=O)CNC(=O)[C@@H]2CCCN2C(=O)[C@H](C)NC1=O [compound 250] (cyclo(APGHKL)) | 2142.56 | significant increase | 55.85 | significant increase | 1051.64 | significant increase | 
13 | CC(C)[C@@H]1NC(=O)[C@H](CCCCN)NC(=O)[C@H](Cc2c[nH]cn2)NC(=O)CNC(=O)[C@H](Cc2c[nH]c3ccccc23)NC(=O)[C@@H]2CCCN2C1=O [compound 710] (cyclo(GHKVPW)) |  |  | 110.87 | significant increase | 1207.29 | significant increase | 
14 | CC[C@H](C)[C@@H]1NC(=O)[C@H](CCCCN)NC(=O)[C@H](Cc2c[nH]cn2)NC(=O)CNC(=O)[C@@H]2CCCN2C(=O)[C@H](Cc2c[nH]c3ccccc23)NC1=O [compound 232] (cyclo(GHKIWP)) |  |  | 67.93 | significant increase | 1001.84 | significant increase | 
15 | CSCC[C@@H]1NC(=O)[C@@H]2CCCN2C(=O)[C@H](C(C)C)NC(=O)[C@H](CCCCN)NC(=O)[C@H](Cc2c[nH]cn2)NC(=O)CNC1=O [compound 707] (cyclo(GHKVPM)) |  |  | 66.21 | significant increase |  |  | 
